{"source": "patent US20080275002A1", "about": "“Method for Treatment of Hepatic Cancer” (TAIHO PHARMACEUTICAL CO., LTD., priority 2005, published 2008)", "key": {"[1]": {"molecular_target": "T1, retinoic acid receptor α (RAR-α) (Homo sapiens, UniProt P10276)", "T1 sequence (P10276 1-462)": "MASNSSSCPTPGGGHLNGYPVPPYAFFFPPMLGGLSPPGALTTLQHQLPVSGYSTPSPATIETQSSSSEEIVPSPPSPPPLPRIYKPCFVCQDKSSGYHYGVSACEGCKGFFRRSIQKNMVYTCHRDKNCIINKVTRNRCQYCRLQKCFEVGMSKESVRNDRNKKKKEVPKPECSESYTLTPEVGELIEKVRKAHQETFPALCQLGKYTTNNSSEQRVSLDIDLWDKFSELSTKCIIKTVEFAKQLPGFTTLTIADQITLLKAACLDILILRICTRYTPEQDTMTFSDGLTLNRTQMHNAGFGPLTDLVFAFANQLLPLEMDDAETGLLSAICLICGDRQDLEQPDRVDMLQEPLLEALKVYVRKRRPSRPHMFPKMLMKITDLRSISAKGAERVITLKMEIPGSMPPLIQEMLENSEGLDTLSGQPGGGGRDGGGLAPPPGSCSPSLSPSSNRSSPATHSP", "details": "activates transcription through the receptor; cited from earlier work"}, "lung cancer": {"tested_on": "lung cancer", "details": "high dose, 60 to 80 mg/day, patients with lung cancer; cited from earlier work"}, "[2]": {"tested_on": "advanced hepatocellular carcinoma", "assay": "Clinical study (Phase I/II) of oral TAC-101 in patients with advanced hepatocellular carcinoma", "type": "in vivo", "from_the_text": "Administrations were continued for patients without dose-limiting toxicities (DLT) and without aggravation of the cancer. […] Patients administered with the recommended dose in Phase I part were subjected to data analysis under assumption as Phase II part patients.\nSpecifically, after determination of the measurable lesions in each patient, the response was classified as complete response (CR), partial response (PR), minor response (MR), stabilization of the disease (SD), or progression of the disease (PD) for the efficacy evaluation."}, "hepatic cancer": {"tested_on": "hepatic cancer", "details": "animal model of hepatic cancer; cited from earlier work"}, "[3]": {"details": "20 mg/day, side effects approximately grade 2"}}, "data": [{"smiles": "C[Si](C)(C)c1cc(C(=O)Nc2ccc(C(=O)O)cc2)cc([Si](C)(C)C)c1", "note": "[TAC-101, 4-[3,5-Bis(trimethylsilyl)benzamido]benzoic acid]", "values": [{"measurement": "binding to RAR-α", "setting": "[1]", "result": "binding selectively"}, {"measurement": "deep vein thrombosis (DVT), dose-limiting toxicity", "setting": "lung cancer", "result": "frequently induces deep vein thrombosis"}, {"measurement": "tumor response", "setting": "lung cancer", "result": "tumor reducing effects (PR and CR)"}, {"measurement": "therapy terminated because of grade 3 increase of aspartate aminotransferase (AST)", "setting": "[2]; 20 mg/day", "result": "one"}, {"measurement": "therapy terminated because of onset of grade 3 venous thrombosis embolism (VTE)", "setting": "[2]; 20 mg/day", "result": "one"}, {"measurement": "therapy terminated because of onset of grade 4 pulmonary embolism (PE)", "setting": "[2]; 20 mg/day", "result": "one"}, {"measurement": "patients developing dose-limiting toxicity (DLT)", "setting": "[2]; 20 mg/day oral, among 7 patients, pancreatitis and fatigue", "result": "one"}, {"measurement": "share of patients with TTF 12 weeks or longer", "setting": "[2]; 20 mg/day, 9/21", "result": 42, "unit": "%"}, {"measurement": "PR or CR case (WHO criteria)", "setting": "[2]; 20 mg/day, 21 evaluable patients", "result": "not observed"}, {"measurement": "time to treatment failure (TTF)", "setting": "[2]; 20 mg/day, all 21 patients", "result": 6.6, "unit": "weeks"}, {"measurement": "patients to whom four or more courses were applicable, progress of the hepatic cancer significantly arrested", "setting": "[2]; 20 mg/day, of 21 evaluable patients", "result": 9, "unit": "patients"}, {"measurement": "patients with TTF 12 weeks or longer (progress arrested, no deterioration)", "setting": "[2]; 20 mg/day, of 21 patients", "result": 9, "unit": "patients"}, {"measurement": "AST increase, incidence", "setting": "[2]; [3]", "result": 14.3, "unit": "%"}, {"measurement": "AST increase, number of patients", "setting": "[2]; [3]", "result": 4, "unit": "patients"}, {"measurement": "alanine aminotransferase (ALT), incidence", "setting": "[2]; [3]", "result": 14.3, "unit": "%"}, {"measurement": "alanine aminotransferase (ALT), number of patients", "setting": "[2]; [3]", "result": 4, "unit": "patients"}, {"measurement": "anorexia, incidence", "setting": "[2]; [3]", "result": 10.7, "unit": "%"}, {"measurement": "anorexia, number of patients", "setting": "[2]; [3]", "result": 3, "unit": "patients"}, {"measurement": "dermatitis, incidence", "setting": "[2]; [3]", "result": 21.4, "unit": "%"}, {"measurement": "dermatitis, number of patients", "setting": "[2]; [3]", "result": 6, "unit": "patients"}, {"measurement": "fatigue, incidence", "setting": "[2]; [3]", "result": 32, "unit": "%"}, {"measurement": "fatigue, number of patients", "setting": "[2]; [3]", "result": 9, "unit": "patients"}, {"measurement": "increased triglycerides, incidence", "setting": "[2]; [3]", "result": 28.6, "unit": "%"}, {"measurement": "increased triglycerides, number of patients", "setting": "[2]; [3]", "result": 8, "unit": "patients"}, {"measurement": "myalgias, incidence", "setting": "[2]; [3]", "result": 28.6, "unit": "%"}, {"measurement": "myalgias, number of patients", "setting": "[2]; [3]", "result": 8, "unit": "patients"}, {"measurement": "nausea, incidence", "setting": "[2]; [3]", "result": 14.3, "unit": "%"}, {"measurement": "nausea, number of patients", "setting": "[2]; [3]", "result": 4, "unit": "patients"}, {"measurement": "maximum tolerance dose (MTD)", "setting": "[2]; 14 days daily oral administration, 7 days withdrawal", "result": 20, "unit": "mg/day"}, {"measurement": "antitumor effects", "setting": "hepatic cancer", "result": "demonstrated"}]}]}
